Measured values as given in ChEMBL document CHEMBL5579805, “Synthesis, antibacterial activity, and 3D-QASR studies of matrine-indole derivatives as potential antibiotics” (2024).
In brackets after ≈: the same amount, converted by molar mass.

What was measured:
Type in all cases: functional
Cutibacterium acnes = experiment: Antibacterial activity against Propionibacterium acnes by two-fold dilution method
Candida albicans = experiment: […] activity against Candida albicans by two-fold dilution method; conditions: for MIC: Candida albicans
Staphylococcus aureus = experiment: Antibacterial activity against Staphylococcus aureus by two-fold dilution method; conditions: for MIC: Staphylococcus aureus
Escherichia coli = experiment: Antibacterial activity against Escherichia coli by two-fold dilution method
Pseudomonas aeruginosa = experiment: Antibacterial activity against Pseudomonas aeruginosa by two-fold dilution method

SMILES | MIC (Cutibacterium acnes) [µg/mL] | -logMIC (Candida albicans) | MIC (Candida albicans) [µg/mL] | -logMIC (Staphylococcus aureus) | MIC (Staphylococcus aureus) [µg/mL] | MIC (Escherichia coli) [µg/mL] | MIC (Pseudomonas aeruginosa) [µg/mL]
COC(=O)CCC[C@@H]1[C@H]2CCCN3CCC[C@@H](CN1C(=O)c1cc4ccc(Cl)cc4n1Cc1ccc(Br)cc1)[C@@H]23 | 0.121 (≈ 0.193 µM) | -1.14 | 13.7 (≈ 21.9 µM) | 0.06 | 1.15 (≈ 1.83 µM) | 0.762 (≈ 1.22 µM) | 0.467 (≈ 0.745 µM)
COC(=O)CCC[C@@H]1[C@H]2CCCN3CCC[C@@H](CN1C(=O)c1cc4ccc(Cl)cc4n1Cc1ccc(F)c(F)c1)[C@@H]23 | 0.12 (≈ 0.205 µM) | -0.98 | 9.55 (≈ 16.3 µM) | 0.37 | 0.427 (≈ 0.731 µM) | 0.483 (≈ 0.827 µM) | 0.5 (≈ 0.856 µM)
COC(=O)CCC[C@@H]1[C@H]2CCCN3CCC[C@@H](CN1C(=O)c1cc4ccc(Cl)cc4n1Cc1ccccc1[N+](=O)[O-])[C@@H]23 | 2.86 (≈ 4.82 µM) | -1.05 | 11.1 (≈ 18.8 µM) | 0.876 | 0.133 (≈ 0.224 µM) | 0.694 (≈ 1.17 µM) | 0.852 (≈ 1.44 µM)
COC(=O)CCC[C@@H]1[C@H]2CCCN3CCC[C@@H](CN1C(=O)c1cc4ccccc4[nH]1)[C@@H]23 | 1.23 (≈ 2.91 µM) | -1.16 | 14.3 (≈ 33.7 µM) | -0.991 | 9.79 (≈ 23.1 µM) | 2.97 (≈ 7.01 µM) | 1.08 (≈ 2.56 µM)
COC(=O)CCC[C@@H]1[C@H]2CCCN3CCC[C@@H](CN1C(=O)c1cc4ccc(Cl)cc4n1Cc1cccc(OCc4ccccc4)c1)[C@@H]23 | 0.093 (≈ 0.142 µM) | -0.991 | 9.8 (≈ 15 µM) | 0.932 | 0.117 (≈ 0.179 µM) | 0.894 (≈ 1.37 µM) | 0.975 (≈ 1.49 µM)
COC(=O)CCC[C@@H]1[C@H]2CCCN3CCC[C@@H](CN1C(=O)c1cc4ccc(Cl)cc4n1Cc1ccc(F)cc1)[C@@H]23 | 0.199 (≈ 0.352 µM) | -0.77 | 5.89 (≈ 10.4 µM) | 0.035 | 0.923 (≈ 1.63 µM) | 0.618 (≈ 1.09 µM) | 0.806 (≈ 1.42 µM)
COC(=O)CCC[C@@H]1[C@H]2CCCN3CCC[C@@H](CN1C(=O)c1cc4ccc(Cl)cc4n1Cc1cccc(C(F)(F)F)c1)[C@@H]23 | 0.058 (≈ 0.0941 µM) | -0.655 | 4.52 (≈ 7.33 µM) | 0.866 | 0.136 (≈ 0.221 µM) | 0.559 (≈ 0.907 µM) | 0.234 (≈ 0.38 µM)
COC(=O)CCC[C@@H]1[C@H]2CCCN3CCC[C@@H](CN1C(=O)c1cc4ccc(Cl)cc4n1Cc1ccc(C(C)(C)C)cc1)[C@@H]23 | 1.33 (≈ 2.19 µM) | -1.26 | 18.1 (≈ 29.9 µM) | 1.071 | 0.085 (≈ 0.141 µM) | 1.22 (≈ 2.02 µM) | 0.654 (≈ 1.08 µM)
COC(=O)CCC[C@@H]1[C@H]2CCCN3CCC[C@@H](CN1C(=O)c1cc4ccc(Cl)cc4n1Cc1ccc(-c4ccccc4)cc1)[C@@H]23 | 0.373 (≈ 0.598 µM) | -1.37 | 23.2 (≈ 37.2 µM) | 1.276 | 0.053 (≈ 0.0849 µM) | 1.16 (≈ 1.86 µM) | 0.55 (≈ 0.881 µM)
COC(=O)CCC[C@@H]1[C@H]2CCCN3CCC[C@@H](CN1C(=O)c1cc4ccc(Cl)cc4n1Cc1ccc(F)cc1Br)[C@@H]23 | 0.351 (≈ 0.544 µM) | -0.942 | 8.74 (≈ 13.6 µM) | 0.458 | 0.348 (≈ 0.54 µM) | 1.04 (≈ 1.62 µM) | 0.445 (≈ 0.69 µM)
COC(=O)CCC[C@@H]1[C@H]2CCCN3CCC[C@@H](CN1C(=O)c1cc4ccc(Cl)cc4n1Cc1ccccc1C)[C@@H]23 | 0.271 (≈ 0.482 µM) | -1.29 | 19.6 (≈ 34.8 µM) | 1.201 | 0.063 (≈ 0.112 µM) | 1.1 (≈ 1.97 µM) | 0.72 (≈ 1.28 µM)
COC(=O)CCC[C@@H]1[C@H]2CCCN3CCC[C@@H](CN1C(=O)c1cc4ccc(Cl)cc4n1Cc1ccc([N+](=O)[O-])cc1)[C@@H]23 | 0.053 (≈ 0.0894 µM) | -0.846 | 7.01 (≈ 11.8 µM) | 0.745 | 0.18 (≈ 0.303 µM) | 0.523 (≈ 0.882 µM) | 0.28 (≈ 0.472 µM)
COC(=O)CCC[C@@H]1[C@H]2CCCN3CCC[C@@H](CN1C(=O)c1cc4ccc(Cl)cc4n1Cc1cc(C#N)ccc1F)[C@@H]23 | 0.2 (≈ 0.338 µM) | -1.02 | 10.6 (≈ 17.9 µM) | 0.587 | 3.86 (≈ 6.54 µM) | 0.644 (≈ 1.09 µM) | 0.658 (≈ 1.11 µM)
COC(=O)CCC[C@@H]1[C@H]2CCCN3CCC[C@@H](CN1C(=O)c1cc4ccc(Cl)cc4n1Cc1ccc(OC)cc1)[C@@H]23 | 0.404 (≈ 0.699 µM) | -0.905 | 8.04 (≈ 13.9 µM) | 0.451 | 0.354 (≈ 0.612 µM) | 0.775 (≈ 1.34 µM) | 0.627 (≈ 1.08 µM)
COC(=O)CCC[C@@H]1[C@H]2CCCN3CCC[C@@H](CN1C(=O)c1cc4ccc(Cl)cc4n1Cc1ccc4ccccc4c1)[C@@H]23 | 0.175 (≈ 0.293 µM) | -1.09 | 12.2 (≈ 20.4 µM) | 1.187 | 0.065 (≈ 0.109 µM) | 0.892 (≈ 1.49 µM) | 0.42 (≈ 0.702 µM)
COC(=O)CCC[C@@H]1[C@H]2CCCN3CCC[C@@H](CN1C(=O)c1cc4ccc(Cl)cc4[nH]1)[C@@H]23 | 0.636 (≈ 1.39 µM) | -0.819 | 6.59 (≈ 14.4 µM) | 0.207 | 1.61 (≈ 3.52 µM) | 2.55 (≈ 5.57 µM) | 0.661 (≈ 1.44 µM)
COC(=O)CCC[C@@H]1[C@H]2CCCN3CCC[C@@H](CN1C(=O)c1cc4ccc(Cl)cc4n1Cc1c(Cl)cccc1Cl)[C@@H]23 | 0.203 (≈ 0.329 µM) | -0.833 | 6.81 (≈ 11 µM) | 0.785 | 0.164 (≈ 0.266 µM) | 0.82 (≈ 1.33 µM) | 0.207 (≈ 0.335 µM)

SMILES | MIC (Cutibacterium acnes) [µg/mL] | -logMIC (Candida albicans) | MIC (Candida albicans) [µg/mL] | -logMIC (Staphylococcus aureus) | MIC (Staphylococcus aureus) [µg/mL] | MIC (Escherichia coli) [µg/mL] | MIC (Pseudomonas aeruginosa) [µg/mL]
COC(=O)CCC[C@@H]1[C@H]2CCCN3CCC[C@@H](CN1C(=O)c1cc4ccc(Cl)cc4n1Cc1ccc(Cl)cc1)[C@@H]23 | 0.246 (≈ 0.422 µM) | -1.13 | 13.5 (≈ 23.1 µM) | 0.73 | 0.186 (≈ 0.319 µM) | 0.812 (≈ 1.39 µM) | 0.633 (≈ 1.09 µM)
COC(=O)CCC[C@@H]1[C@H]2CCCN3CCC[C@@H](CN1C(=O)c1cc4ccc(Cl)cc4n1Cc1ccc(C(F)(F)F)cc1)[C@@H]23 | 0.03 (≈ 0.0487 µM) | -0.448 | 2.81 (≈ 4.55 µM) | 1.678 | 0.021 (≈ 0.0341 µM) | 0.379 (≈ 0.615 µM) | 0.092 (≈ 0.149 µM)
COC(=O)CCC[C@@H]1[C@H]2CCCN3CCC[C@@H](CN1C(=O)c1cc4ccc(Cl)cc4n1Cc1ccc(C)cc1)[C@@H]23 | 0.508 (≈ 0.904 µM) | -0.907 | 8.08 (≈ 14.4 µM) | 0.221 | 1.66 (≈ 2.96 µM) | 1.09 (≈ 1.93 µM) | 0.773 (≈ 1.38 µM)
COC(=O)CCC[C@@H]1[C@H]2CCCN3CCC[C@@H](CN1C(=O)c1cc4ccc(Cl)cc4n1Cc1cc(Cl)ccc1F)[C@@H]23 | 0.084 (≈ 0.14 µM) | -0.739 | 5.48 (≈ 9.12 µM) | 1.013 | 0.097 (≈ 0.162 µM) | 0.848 (≈ 1.41 µM) | 0.5 (≈ 0.833 µM)
COC(=O)CCC[C@@H]1[C@H]2CCCN3CCC[C@@H](CN1C(=O)c1cc4ccc(Cl)cc4n1Cc1cccc([N+](=O)[O-])c1)[C@@H]23 | 0.248 (≈ 0.418 µM) | -1.07 | 11.7 (≈ 19.7 µM) | 1.509 | 0.031 (≈ 0.0523 µM) | 0.954 (≈ 1.61 µM) | 0.387 (≈ 0.652 µM)
COC(=O)CCC[C@@H]1[C@H]2CCCN3CCC[C@@H](CN1C(=O)c1cc4ccc(Cl)cc4n1Cc1ccccc1)[C@@H]23 | 0.478 (≈ 0.872 µM) | -0.951 | 8.94 (≈ 16.3 µM) | 0.283 | 0.521 (≈ 0.951 µM) | 1.23 (≈ 2.25 µM) | 0.844 (≈ 1.54 µM)
COC(=O)CCC[C@@H]1[C@H]2CCCN3CCC[C@@H](CN1C(=O)c1cc4ccc(Cl)cc4n1Cc1cc(OC)ccc1Br)[C@@H]23 | 0.175 (≈ 0.266 µM) | -0.997 | 9.92 (≈ 15.1 µM) | 0.111 | 0.774 (≈ 1.18 µM) | 0.933 (≈ 1.42 µM) | 0.323 (≈ 0.492 µM)
COC(=O)CCC[C@@H]1[C@H]2CCCN3CCC[C@@H](CN1C(=O)c1cc4ccc(Cl)cc4n1Cc1ccccc1C(C)(C)C)[C@@H]23 | 0.354 (≈ 0.586 µM) | -0.898 | 7.9 (≈ 13.1 µM) | 0.75 | 0.178 (≈ 0.295 µM) | 1.14 (≈ 1.88 µM) | 0.926 (≈ 1.53 µM)
COC(=O)CCC[C@@H]1[C@H]2CCCN3CCC[C@@H](CN1C(=O)c1cc4ccc(Cl)cc4n1Cc1ccccc1C#N)[C@@H]23 | 0.848 (≈ 1.48 µM) | -1.05 | 11.2 (≈ 19.6 µM) | 0.319 | 0.48 (≈ 0.837 µM) | 0.823 (≈ 1.44 µM) | 0.693 (≈ 1.21 µM)
COC(=O)CCC[C@@H]1[C@H]2CCCN3CCC[C@@H](CN1C(=O)c1cc4ccc(Cl)cc4n1Cc1cccc4ccccc14)[C@@H]23 | 0.14 (≈ 0.234 µM) | -1.08 | 12.1 (≈ 20.2 µM) | 0.519 | 0.303 (≈ 0.507 µM) | 0.649 (≈ 1.08 µM) | 0.534 (≈ 0.893 µM)
COC(=O)CCC[C@@H]1[C@H]2CCCN3CCC[C@@H](CN1C(=O)c1cc4ccc(Cl)cc4n1Cc1cccc(C)c1)[C@@H]23 | 0.305 (≈ 0.543 µM) | -1.06 | 11.6 (≈ 20.6 µM) | 0.567 | 0.271 (≈ 0.482 µM) | 1.3 (≈ 2.31 µM) | 0.536 (≈ 0.953 µM)
CC(C)(O/N=C(\C(=O)N[C@@H]1C(=O)N2C(C(=O)[O-])=C(C[n+]3ccccc3)CS[C@H]12)c1csc(N)n1)C(=O)O [CEFTAZIDIME] |  |  |  |  |  |  | 0.042 (≈ 0.0768 µM)
C[C@H]1c2cccc(O)c2C(=O)C2=C(O)[C@]3(O)C(=O)C(C(N)=O)=C(O)[C@@H](N(C)C)[C@@H]3[C@@H](O)[C@@H]21.Cl [DOXYCYCLINE HYDROCHLORIDE] | 0.023 |  |  |  |  |  | 
OC(Cn1cncn1)(Cn1cncn1)c1ccc(F)cc1F [FLUCONAZOLE] |  |  | 4.85 (≈ 15.8 µM) |  |  |  | 
NC[C@H]1O[C@H](O[C@H]2[C@H](O)[C@@H](O[C@H]3O[C@H](CO)[C@@H](O)[C@H](N)[C@H]3O)[C@H](N)C[C@@H]2N)[C@H](O)[C@@H](O)[C@@H]1O.O=S(=O)(O)O [KANAMYCIN SULFATE] |  |  |  |  |  | 0.052 | 
CC1(C)S[C@@H]2[C@H](NC(=O)Cc3ccccc3)C(=O)N2[C@H]1C(=O)[O-].[Na+] [PENICILLIN G SODIUM] |  |  |  |  | 0.037 |  | 
